Measured values: publication PMC10653547, “Synergistic effect of two antimicrobial peptides, BP203 and MAP-0403 J-2 with conventional antibiotics against colistin-resistant Escherichia coli and Klebsiella pneumoniae clinical isolates” (PLOS ONE, 2023)

Key:
[1] = system: colistin-resistant E. coli clinical isolates; experiment: Checkerboard assay for synergy testing; type: cell-based, Escherichia coli; details: checkerboard Ceftazedime+BP203
Protocol: (§1) The synergistic activities of various two-antimicrobial combinations against colistin-resistant E. coli and K. pneumoniae isolates were evaluated using the checkerboard assay, which was performed in 96-well plates. […] Two-fold serial dilutions of peptides and antibiotics were independently prepared in CAMHB. Afterward, a mixture of different concentrations of the antibiotics and peptides was added to the wells of the microplates. Antibiotics and peptides were also dispended alone in the first row and the first column, respectively. Bacterial inoculum was added to the 96-well plate to achieve a final concentration of 5 × 10^5 CFU/mL. Then, plates were incubated at 37 °C for 20–24 h. MICs were recorded as the minimum concentration of antimicrobial agents without bacterial growth. The interaction between the antimicrobials was determined by calculating the fractional inhibitory concentration index (FICI) according to the formula: FICI = FIC(drug A) + FIC(drug B), where FIC = the MIC of the drug when in the combination/MIC of drug tested individually.

[2] = system: colistin-resistant K. pneumoniae clinical isolates; experiment: Checkerboard assay for synergy testing; type: cell-based, Klebsiella pneumoniae
Protocol: as §1

[3] = isolate KP-01, checkerboard Ceftazedime+BP203
[4] = isolate KP-02, checkerboard Ceftazedime+BP203
[5] = isolate KP-03, checkerboard Ceftazedime+BP203
[6] = isolate KP-04, checkerboard Ceftazedime+BP203
[7] = isolate KP-05, checkerboard Ceftazedime+BP203
[8] = isolate KP-06, checkerboard Ceftazedime+BP203
[9] = isolate KP-07, checkerboard Ceftazedime+BP203
[10] = isolate KP-08, checkerboard Ceftazedime+BP203
[11] = isolate KP-09, checkerboard Ceftazedime+BP203
[12] = isolate KP-10, checkerboard Ceftazedime+BP203
[13] = checkerboard BP203 x meropenem, KP-01
[14] = checkerboard BP203 x meropenem, KP-02
[15] = checkerboard BP203 x meropenem, KP-03
[16] = checkerboard BP203 x meropenem, KP-04
[17] = checkerboard BP203 x meropenem, KP-05
[18] = checkerboard BP203 x meropenem, KP-06
[19] = checkerboard BP203 x meropenem, KP-08
[20] = checkerboard BP203 x meropenem, KP-09
[21] = checkerboard BP203 x meropenem, KP-10
[22] = checkerboard MAP-0403 J-2 x meropenem, KP-01
[23] = checkerboard MAP-0403 J-2 x meropenem, KP-02
[24] = checkerboard MAP-0403 J-2 x meropenem, KP-03
[25] = checkerboard MAP-0403 J-2 x meropenem, KP-05
[26] = checkerboard MAP-0403 J-2 x meropenem, KP-06
[27] = checkerboard MAP-0403 J-2 x meropenem, KP-07
[28] = checkerboard MAP-0403 J-2 x meropenem, KP-08
[29] = checkerboard MAP-0403 J-2 x meropenem, KP-09
[30] = checkerboard MAP-0403 J-2 x meropenem, KP-10

## CC(C)(O/N=C(\C(=O)N[C@@H]1C(=O)N2C(C(=O)[O-])=C(C[n+]3ccccc3)CS[C@H]12)c1csc(N)n1)C(=O)O [Ceftazedime]
[1]; isolate EC-01
  MIC alone: 8 mg/L
  MIC combination: 4 mg/L
[1]; isolate EC-02
  MIC alone: 16 mg/L
  MIC combination: 4 mg/L
[1]; isolate EC-03
  MIC alone: 32 mg/L
  MIC combination: 8 mg/L
[1]; isolate EC-04
  MIC alone: 32 mg/L
  MIC combination: 8 mg/L
[1]; isolate EC-05
  MIC alone: 1 mg/L
  MIC combination: 0.25 mg/L
[1]; isolate EC-06
  MIC alone: 16 mg/L
  MIC combination: 0.5 mg/L
[1]; isolate EC-07
  MIC alone: 16 mg/L
  MIC combination: 8 mg/L
[1]; isolate EC-08
  MIC alone: 0.5 mg/L
  MIC combination: 0.25 mg/L
[1]; isolate EC-09
  MIC alone: 16 mg/L
  MIC combination: 8 mg/L
[1]; isolate EC-10
  MIC alone: 8 mg/L
  MIC combination: 4 mg/L
[2]; [3]
  MIC alone: 128 mg/L
  MIC combination: 8 mg/L
[2]; [4]
  MIC alone: 128 mg/L
  MIC combination: 16 mg/L
[2]; [5]
  MIC alone: 512 mg/L
  MIC combination: 128 mg/L
[2]; [6]
  MIC alone: 512 mg/L
  MIC combination: 512 mg/L
[2]; [7]
  MIC alone: 512 mg/L
  MIC combination: 4 mg/L
[2]; [8]
  MIC alone: 256 mg/L
  MIC combination: 16 mg/L
[2]; [9]
  MIC alone: 1020 mg/L
  MIC combination: 512 mg/L
[2]; [10]
  MIC alone: 512 mg/L
  MIC combination: 64 mg/L
[2]; [11]
  MIC alone: 512 mg/L
  MIC combination: 128 mg/L
[2]; [12]
  MIC alone: 512 mg/L
  MIC combination: 32 mg/L

## C[C@@H](O)[C@H]1C(=O)N2C(C(=O)O)=C(S[C@@H]3CN[C@H](C(=O)N(C)C)C3)[C@H](C)[C@H]12 [Meropenem, meropenem]
[2]; [13]
  MIC alone: 8 mg/L
  MIC combination: 2 mg/L
[2]; [14]
  MIC alone: 16 mg/L
  MIC combination: 4 mg/L
[2]; [15]
  MIC alone: 64 mg/L
  MIC combination: 16 mg/L
[2]; [16]
  MIC alone: 256 mg/L
  MIC combination: 64 mg/L
[2]; [17]
  MIC alone: 64 mg/L
  MIC combination: 16 mg/L
[2]; [18]
  MIC alone: 16 mg/L
  MIC combination: 4 mg/L
[2]; checkerboard BP203 x meropenem, KP-07
  MIC combination: 32 mg/L
[2]; [19]
  MIC alone: 64 mg/L
  MIC combination: 8 mg/L
[2]; [20]
  MIC alone: 64 mg/L
  MIC combination: 16 mg/L
[2]; [21]
  MIC alone: 16 mg/L
  MIC combination: 4 mg/L
[2]; [22]
  MIC alone: 4 mg/L
  MIC combination: 2 mg/L
[2]; [23]
  MIC alone: 8 mg/L
  MIC combination: 8 mg/L
[2]; [24]
  MIC alone: 32 mg/L
  MIC combination: 0.25 mg/L
[2]; [25]
  MIC alone: 32 mg/L
  MIC combination: 32 mg/L
[2]; [26]
  MIC alone: 8 mg/L
  MIC combination: 4 mg/L
[2]; [27]
  MIC alone: 64 mg/L
  MIC combination: 64 mg/L
[2]; [28]
  MIC alone: 64 mg/L
  MIC combination: 64 mg/L
[2]; [29]
  MIC alone: 64 mg/L
  MIC combination: 32 mg/L
[2]; [30]
  MIC alone: 16 mg/L
  MIC combination: 8 mg/L
